From article PMC9786881 (Viruses, 2022)

Target: RABV NΔ23^0 (nucleoprotein aa 24-450) (Rabies virus, UniProt Q8JXF6)
Format: binding, rabies virus (strain CVS-11)

CC[C@H](C)[C@H](NC(=O)[C@H](C)NC(=O)[C@H](CO)NC(=O)[C@@H]1CCCN1C(=O)[C@H](CC(N)=O)NC(=O)[C@@H](NC(=O)[C@H](Cc1ccccc1)NC(=O)[C@@H](NC(=O)[C@H](CCCCN)NC(=O)[C@H](CO)NC(=O)[C@H](CCSC)NC(=O)[C@H](CO)NC(=O)[C@H](C)NC(=O)CN)[C@@H](C)CC)C(C)C)C(=O)N[C@@H](CCCNC(=N)N)C(=O)N[C@@H](C)C(=O)NCC(=O)N[C@@H](CC(C)C)C(=O)N[C@@H](C)C(=O)N[C@@H](CC(=O)O)C(=O)N[C@@H](CC(C)C)C(=O)N[C@@H](CCC(=O)O)C(=O)N[C@@H](CCSC)C(=O)N[C@@H](C)C(=O)N[C@@H](CCC(=O)O)C(=O)N[C@@H](CCC(=O)O)C(=O)N[C@H](C(=O)N[C@H](C(=O)N[C@@H](CC(=O)O)C(=O)N[C@@H](CC(C)C)C(=O)N[C@H](C(=O)N[C@@H](CC(N)=O)C(=O)N[C@@H](CCCNC(=N)N)C(=O)N[C@@H](CC(N)=O)C(=O)N[C@H](C(=O)N[C@@H](CCC(=O)O)C(=O)N[C@@H](CC(=O)O)C(=O)N[C@@H](CC(N)=O)C(=O)N[C@@H](CCC(N)=O)C(=O)N[C@@H](C)C(=O)N[C@@H](Cc1c[nH]cn1)C(=O)N[C@@H](CC(C)C)C(=O)N[C@@H](CCC(N)=O)C(=O)N[C@@H](CSC1CC(=O)N(CCNC(=O)c2ccc3c(c2)C(=O)OC32c3ccc(O)cc3Oc3cc(O)ccc32)C1=O)C(=O)N[C@@H](CCC(=O)O)C(=O)O)[C@@H](C)CC)[C@@H](C)CC)C(C)C)[C@@H](C)O (stereo partly shown) [P42-G41C*]
half time of dissociation: 256 min
